Experimental data as given in paper PMC5554537 (Frontiers in Pharmacology, 2017).
Read-outs that look alike come from different tables or passages of the source.

Experiments:
[1] = i.p. SN30000 186 mg/kg
Protocol: (§1) M18 was quantified by absorbance detection with reference to an external standard calibration curve.
(§2) Concentration-time data were analyzed by non-compartmental analysis using Phoenix WinNonlin (ver 6.4, Build 6.4.0768 Pharsight, United States); all AUC values were extrapolated to infinity using the linear trapezoidal rule.
(§3) SN30000, M14 and M13 were quantified by LC-MS/MS using stable isotope internal standards, while M18 was quantified by absorbance detection using external standard calibration curves.

[2] = Compartmental plasma PK model; type: in vivo; parameters: Absorption rate constant Ka: unit not given here; settings: for Central compartment volume V1: 1-Oxide and Nor-oxide values fixed; for clearance: model clearance of the compound, read-out: CL (converted)
Excerpt: This model, shown schematically in Figure 9, is based on total (free + bound) plasma concentrations; the major metabolites (M14, M13, and M18) are explicit and clearance of SN30000 occurs only by reduction to M14. The i.p. bioavailability of SN30000 was modeled with an additional term for loss from the peritoneal compartment (kloss).

[3] = Metabolite profile in plasma, liver and HT29 tumor after i.p. SN30000; type: in vivo, NIH-III mice; settings: SN30000 186 mg/kg i.p.; for Metabolite/SN30000 peak area, Tumor: HT29 tumor
Protocol: Mouse plasma and tissue homogenates, prepared from tissue samples in two volumes of ice-cold PBS using a TissueLyser II (Qiagen Sciences, Germantown, MD, United States) with 30 Hz oscillation frequency for 1 min, were processed by precipitating proteins with 3 vol MeOH and centrifuging (13,000 g, 4°C for 10 min). Supernatants were diluted into 3 vol water and analyzed with an Agilent model 6460 LC-MS/MS with an in-line photodiode array absorbance detector. Chromatographic separation was performed on a Zorbax Eclipse C18 column (100 mm × 3.0 mm, 1.8 μm; Agilent Technologies) at 35°C with a flow rate of 0.6 mL/min, with positive or negative mode electrospray ionization. The mobile phase was a gradient constructed using 80% MeCN/20% water/0.1% formic acid v/v/v (A) and 0.1% formic acid in water (B) from 10% A to 80% A with a total run time of […]. The gradient profile was: 0–4 min, 10% A; 4–11 min linear increase to 60% A; 11–12 min to 80% A; held for 1 min, returned to 10% A over 0.5 min and held for 2 min before the next sample injection. Absorbance spectra were collected from 230 to 600 nm with a reference wavelength of 550 nm. The mass/charge (m/z) ratio was scanned from 100 to 800 with a fragmentor voltage of 120 V. MS^2 with various collision energies was used for further characterization of some metabolites.
Metabolites were investigated in plasma, liver and HT29 tumors following i.p. dosing of female NIH-III mice with SN30000 at 186 mg/kg, which represents its previously determined MTD for this route and mouse strain ([Gu et al., 2014]). Representative chromatograms are shown in Supplementary Figure 1. A total of 19 metabolites (M1–M19) were provisionally identified (Figure 1 and Table 1). Assignments were confirmed by comparison with synthetic standards in the case of the 1-oxide M14 and nor-oxide M13, which have previously been reported as murine metabolites of SN30000 ([Wang et al., 2012]) and for M15 which is known to be the major photodegradation product of SN30000 ([Gu et al., 2014]). In addition, the previously unreported metabolite M18, which is the main plasma metabolite at late times, was isolated from pooled plasma of mice dosed with M14 in sufficient quantity for characterization by NMR (Supplementary Data). This identified M18 as an oxidation product of M14 with an alkanoic acid side-chain (Figure 1), an assignment that was confirmed by synthesis of the authentic compound which was identical by HPLC retention time, absorbance spectrum, elemental analysis, mass spectrum and NMR spectroscopy.

in vivo [4] = settings: NIH-III, mouse, ip
Protocol: SN30000, M14 and M18 dosing solutions were prepared fresh in normal saline, filtered through 0.45 μm Acrodisc filters (Pall Life Sciences, Port Washington, NY, United States), protected from light in amber vials, and used within 3 h. Doses are expressed as mg of free base equivalent for SN30000 and M14, and free acid in the case of M18. […] For evaluation of acute toxicity, mice were observed continuously for 3 h after dosing, and their activity rated on a lethargy score from 0 representing no change in activity to 5 representing animals that were moribund and required culling. For MTD studies, the animals were checked daily for clinical signs of toxicity and body weight change for 2 weeks. In some studies rectal temperature changes after dosing were measured using a BAT-12 digital microprobe thermometer (Physitemp Instruments, Clifton, NJ, United States) at the times specified in the figures. Blood samples were collected from mice at various times by cardiac puncture, seconds after cervical dislocation, into ice-cold tubes containing K2EDTA. These were placed on ice immediately after collection and centrifuged (3,000 g, 3 min) within 10 min to harvest plasma. Plasma and tissues were rapidly frozen in liquid nitrogen before storage at -80°C for subsequent bioanalysis.
Concentration-time data were analyzed by non-compartmental analysis using Phoenix WinNonlin (ver 6.4, Build 6.4.0768 Pharsight, United States); all AUC values were extrapolated to infinity using the linear trapezoidal rule. A compartmental model for plasma PK after dosing with SN30000 or M14 was fitted using Phoenix NLME v1.3 with random effects on the metabolite volumes of distribution, and temperature effects based on the observed body temperature at the last measurement time. Temperature effects were added or removed until there was no significant change in the log likelihood. Model fits were further assessed by visual inspection of the residuals and predicted PK.

in vivo [5] = settings: NIH-III, mouse, ip, 186 mg/kg
Protocol: as §1, §2, §3

NIH-III mice = assay: Core body (rectal) temperature and acute clinical signs after dosing; type: in vivo; settings: i.p. SN30000 186 mg/kg, TPZ 31.7 mg/kg, M14 135 mg/kg
Protocol: Supplementary Figure 3. Initial rates of core temperature decrease in (untreated) NIH-III mice post- mortem: co mparison with initial temperature change ante- mortem following treatment with benzotriazine oxides at their MTD. Temperature was measured in rectu m and liver over 15 min. Initial rates of temperature loss (°C/min) were: post- mortem (rectum):
(rectum) 0.33. The rectal temperature loss following dosing with M14 (135 mg/kg) was 0.6 °C/min (not shown for clarity). The drug-induced changes are redrawn from Fig. 4.

HCT116 cells = assay: Antiproliferative potency, 4 h exposure, sulforhodamine B; type: cell-based, human; settings: Homo sapiens, HCT-116, 4 h, HCT116, 4 h exposure, read-out: IC50
Protocol: Antiproliferative potency of SN30000 and its major metabolites following 4 h exposure of HCT116 cells under aerobic or anoxic conditions. […]
a HCT116 cells, originally from ATCC, were authenticated by short tandem repeat profiling and confir med mycoplasma-free by PCR/ELISA assay . Cells were passaged in Alpha MEM with 5% foetal bovine serum without antibiotics. In vitro cytotoxicity of SN30000 and metabolites was measured as the inhibition of cell proliferation as described previously (Gu et al., 2009). Briefly, cells were exposed to compounds for 4 h under aerobic (20% O2) or anoxic (Bactron anaerobic chamber) conditions and then grown in an aerobic 5% CO 2 incubator for 5 d before staining with sulforhodamine B. IC50 values were deter mined by interpolation (nonlinear regression to the standard Hill equation) as the drug concentration reducing staining to 50% of controls on the same plate. b Values are mean ± SEM for the numb er of independent experiments shown in parentheses.

[6] = HT29 tumour, tumour-bearing mice
[7] = liver, HT29 tumour-bearing mice
[8] = plasma, HT29 tumour-bearing mice
[9] = plasma, non-tumour-bearing mice

Structure (SMILES): c1c2c(cc3nc(CCCN4CCOCC4)nnc13)CCC2 [M13]
- Concentrations in brain compared with plasma [1]: higher in brain than plasma
- AUC (extrapolated to infinity) [1, 6]: 57.7 µmol·h/kg
- Cmax [1, 6]: 15.5 ± 2.2 µmol/kg
- AUC (extrapolated to infinity) ([1]; brain, non-tumour-bearing mice): 46.7 µmol·h/kg
- Cmax ([1]; brain, non-tumour-bearing mice): 52.8 ± 4.1 µmol/kg
- AUC (extrapolated to infinity) [1, 7]: 158 µmol·h/kg
- Cmax [1, 7]: 155.4 ± 8.4 µmol/kg
- AUC (extrapolated to infinity) ([1]; liver, non-tumour-bearing mice): 158 µmol·h/kg
- Cmax ([1]; liver, non-tumour-bearing mice): 178.7 ± 8.1 µmol/kg
- AUC (extrapolated to infinity) [1, 8]: 14. 9 µmol. hr/kg
- AUC (extrapolated to infinity) [1, 9]: 13.0 µmol·h/kg
- Central compartment volume V1 [2]: 2.2 L/kg
- clearance ([2]; NIH-III, mouse, plasma, other: i.p. and i.v. datasets fitted simultaneously): 1280 mL/min/kg
- Vd ([2]; NIH-III, mouse, plasma, other: i.p. and i.v. datasets fitted simultaneously, read-out: Steady state volume VSS): 11.6 L/kg
- Approximate % suppression per °C of CL ([2]; mouse, in vivo): ~23%
- Peripheral compartment volume V2 ([2]; mouse, in vivo): 9.38 L/kg
- Metabolite/SN30000 peak area, Tumor [3]: 0.11
- Metabolite/SN30000 peak area, Liver [3]: 1.50
- Metabolite/SN30000 peak area, Plasma [3]: 0.08
- AUC (in vivo [4]; plasma, 1.86 mg/kg): 0.0029 µM·h
- Cmax (in vivo [4]; plasma, 1.86 mg/kg): 0.008 µM
- half-life (in vivo [4]; plasma, 1.86 mg/kg): 19.8 min
- AUC (in vivo [4]; plasma, 18.6 mg/kg): 0.079 µM·h
- Cmax (in vivo [4]; plasma, 18.6 mg/kg): 0.202 µM
- half-life (in vivo [4]; plasma, 18.6 mg/kg): 39.1 min
- AUC (in vivo [4]; plasma, 78.3 mg/kg): 2.64 µM·h
- Cmax (in vivo [4]; plasma, 78.3 mg/kg): 3.85 µM
- half-life (in vivo [4]; plasma, 78.3 mg/kg): 31.8 min
- AUC (in vivo [4]; plasma, 92.8 mg/kg): 5.43 µM·h
- Cmax (in vivo [4]; plasma, 92.8 mg/kg): 6.63 µM
- half-life (in vivo [4]; plasma, 92.8 mg/kg): 26.2 min
- AUC (in vivo [4]; plasma, 186 mg/kg): 14.3 µM·h
- half-life (in vivo [4]; plasma, 186 mg/kg): 53.3 min
- half-life (in vivo [5]; HT29 tumour, Terminal T1/2, i.p. SN30000 186 mg/kg, tumour-bearing mice): 126 min
- half-life (in vivo [5]; all tissues except tumors, Elimination half-life, i.p. SN30000 186 mg/kg): ~30 min
- half-life (in vivo [5]; brain, Terminal T1/2, i.p. SN30000 186 mg/kg, non-tumour-bearing mice): 34.9 min
- Tmax (in vivo [5]): ≤ 5 min
- half-life (in vivo [5]; liver, Terminal T1/2, i.p. SN30000 186 mg/kg, HT29 tumour-bearing mice): 52.4 min
- half-life (in vivo [5]; liver, Terminal T1/2, i.p. SN30000 186 mg/kg, non-tumour-bearing mice): 42.1 min
- half-life (in vivo [5]; plasma, Terminal T1/2, i.p. SN30000 186 mg/kg, HT29 tumour-bearing mice): 53.2 min
- half-life (in vivo [5]; plasma, Terminal T1/2, i.p. SN30000 186 mg/kg, non-tumour-bearing mice): 42.4 min

Structure (SMILES): [O-][n+]1nc(CCCN2CCOCC2)nc2cc3c(cc21)CCC3 [M14]
- Concentrations in brain compared with plasma [1]: higher in brain than plasma
- AUC (extrapolated to infinity) [1, 6]: 136 µmol·h/kg
- Cmax [1, 6]: 46.0 ± 3.9 µmol/kg
- AUC (extrapolated to infinity) ([1]; brain, non-tumour-bearing mice): 126 µmol·h/kg
- Cmax ([1]; brain, non-tumour-bearing mice): 162 ± 0 µmol/kg
- AUC (extrapolated to infinity) [1, 7]: 305 µmol·h/kg
- Cmax [1, 7]: 371 ± 26 µmol/kg
- AUC (extrapolated to infinity) ([1]; liver, non-tumour-bearing mice): 350 µmol·h/kg
- Cmax ([1]; liver, non-tumour-bearing mice): 469 ± 27 µmol/kg
- AUC (extrapolated to infinity) [1, 8]: 27. 6 µmol. hr/kg
- AUC (extrapolated to infinity) [1, 9]: 26.4 µmol·h/kg
- Initial rate of temperature loss (rectum) (NIH-III mice): 0.6 °C/min
- Central compartment volume V1 [2]: 2.2 L/kg
- Temperature effect (N) on V1 ([2]; (1+ΔT)^-N): 0.48
- Approximate % suppression per °C of CL ([2]; NIH-III, mouse, in vivo): ~82%
- Approximate % suppression per °C of V1 ([2]; NIH-III, mouse, in vivo): ~28%
- Intercompartmental clearance Clic ([2]; NIH-III, mouse, in vivo): 77.3 mL/min/kg
- Peripheral compartment volume V2 ([2]; NIH-III, mouse, in vivo): 3.51 L/kg
- clearance ([2]; NIH-III, mouse, in vivo): 1020 mL/min/kg
- Absorption rate constant Ka ([2]; i.p. dosing compartment, SN30000 value fixed): 4.43
- Metabolite/SN30000 peak area, Tumor [3]: 0.41
- Metabolite/SN30000 peak area, Liver [3]: 5.18
- Metabolite/SN30000 peak area, Plasma [3]: 0.35
- AUC (in vivo [4]; in vivo, 1.86 mg/kg): 0.02 µM·h
- Cmax (in vivo [4]; in vivo, 1.86 mg/kg): 0.053 µM
- half-life (in vivo [4]; in vivo, 1.86 mg/kg): 29.5 min
- AUC (in vivo [4]; in vivo, 18.6 mg/kg): 0.38 µM·h
- Cmax (in vivo [4]; in vivo, 18.6 mg/kg): 1.11 µM
- half-life (in vivo [4]; in vivo, 18.6 mg/kg): 32.5 min
- AUC (in vivo [4]; in vivo, 78.3 mg/kg): 7.52 µM·h
- Cmax (in vivo [4]; in vivo, 78.3 mg/kg): 13.3 µM
- half-life (in vivo [4]; in vivo, 78.3 mg/kg): 20.1 min
- AUC (in vivo [4]; in vivo, 92.8 mg/kg): 10.8 µM·h
- Cmax (in vivo [4]; in vivo, 92.8 mg/kg): 16.8 µM
- half-life (in vivo [4]; in vivo, 92.8 mg/kg): 22.9 min
- AUC (in vivo [4]; in vivo, 186 mg/kg): 24.6 µM·h
- Cmax (in vivo [4]; in vivo, 186 mg/kg): 23 µM
- half-life (in vivo [4]; in vivo, 186 mg/kg): 58.1 min
- IC50 (HCT116 cells; aerobic (20% O2)): 600 ± 60 µM
- IC50 (HCT116 cells; anoxic): 900 ± 100 µM
- Tmax (in vivo [5]; in vivo): ≤ 5 min
- Cmax (in vivo [5]; in vivo, Cmax, i.p. SN30000 186 mg/kg, plasma, non-tumour-bearing mice): 36.1 ± 5.5 µM
- half-life (in vivo [5]; in vivo, Elimination half-life, i.p. SN30000 186 mg/kg, all tissues except tumors): ~30 min
- half-life (in vivo [5]; in vivo, Terminal T1/2, i.p. SN30000 186 mg/kg, HT29 tumour, tumour-bearing mice): 94.8 min
- half-life (in vivo [5]; in vivo, Terminal T1/2, i.p. SN30000 186 mg/kg, brain, non-tumour-bearing mice): 32.1 min
- half-life (in vivo [5]; in vivo, Terminal T1/2, i.p. SN30000 186 mg/kg, liver, HT29 tumour-bearing mice): 42.7 min
- half-life (in vivo [5]; in vivo, Terminal T1/2, i.p. SN30000 186 mg/kg, liver, non-tumour-bearing mice): 40.5 min
- half-life (in vivo [5]; in vivo, Terminal T1/2, i.p. SN30000 186 mg/kg, plasma, HT29 tumour-bearing mice): 40.6 min
- half-life (in vivo [5]; in vivo, Terminal T1/2, i.p. SN30000 186 mg/kg, plasma, non-tumour-bearing mice): 37.8 min
